This passage reports IC50, Stability and pKa results from ChEMBL document CHEMBL3352030, “Evaluation of the cyclopentane-1,2-dione as a potential bio-isostere of the carboxylic acid functional group” (Bioorg Med Chem Lett, 2014).

As usually defined, the IC50 is the concentration at which inhibition is half-maximal. The term pKa denotes the pH at which an ionisable group is half protonated. Low readings indicate a stronger acid or weaker base, high ones a weaker acid or stronger base.

One data set has as its target T1, Thromboxane A2 receptor (Homo sapiens, UniProt P21731).
T1 sequence (P21731 whole entry): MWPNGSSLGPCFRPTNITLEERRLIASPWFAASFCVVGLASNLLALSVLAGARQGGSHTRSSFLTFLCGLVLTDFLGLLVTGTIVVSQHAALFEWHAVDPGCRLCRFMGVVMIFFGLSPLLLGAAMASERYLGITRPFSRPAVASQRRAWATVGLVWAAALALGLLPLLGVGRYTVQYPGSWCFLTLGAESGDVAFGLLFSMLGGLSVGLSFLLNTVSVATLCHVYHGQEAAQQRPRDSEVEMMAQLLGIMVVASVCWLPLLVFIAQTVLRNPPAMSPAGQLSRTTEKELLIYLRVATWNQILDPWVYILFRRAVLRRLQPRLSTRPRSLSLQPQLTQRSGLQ
Put plainly: Inhibition of human TP receptor expressed in QBI-HEK 293A cells assessed as IP3 metabolite level after 1 hr by HTRF assay. The format is functional, cell-based.

The next data set concerns Plasma. Briefly: Stability in CD-1 mouse plasma at 1 uM after 1 hr by LC/MS/MS analysis. The format is ADME, cell-free.
Data set [1] in a line: Dissociation constant, pKa of the compound by potentiometric titration.

`O=C(O)CCc1cccc2c1CCC(NS(=O)(=O)c1ccc(Cl)cc1)C2` (stereo not given): the IC50 on Thromboxane A2 receptor came to 0.0026 µM.
In the case of `O=C1CCC(Cc2cccc(CCNS(=O)(=O)c3ccc(Cl)cc3)c2)=C1O`, the 50% inhibitory concentration (IC50) at Thromboxane A2 receptor is 0.054 µM. Besides, in the data set with Plasma, the Stability result is listed as “Stable”.
Regarding `O=C1CC(c2cccc(CCNS(=O)(=O)c3ccc(Cl)cc3)c2)C=C1O` (stereo not given), the IC50 on Thromboxane A2 receptor came to 1.14 µM.
For `O=C1CCC(Cc2ccc(Br)cc2)=C1O`, in data set [1], the pKa stood at 8.6.
